According to PMC9317397, “Design and Synthesis of Hepatitis B Virus (HBV) Capsid Assembly Modulators and Evaluation of Their Activity in Mammalian Cell Model” (Pharmaceuticals, 2022):
“Also recorded” adds a separate entry of the source. Like-named read-outs stand apart in the source and are kept apart here.

Experiments:
BHK-21 cells = test: Cytopathic effect (cell morphology, proliferation, trypan blue) in non-infected BHK-21 cells; type: cell-based, hamster; conditions: 24 h
Description: To define HAP compound non-toxic concentrations for initial studies, non-infected BHK-21 cells were incubated with compounds at four different concentrations for 24 h (25 μM, 50 μM, 100 μM, and 200 μM), and the cytopathic effects were evaluated by analysis of cell morphology and proliferation changes. […] 1c, 1j, 1k and 4a, and 7b. The reference comp.
The cytopathic effect of the compounds was estimated by phase contrast microscopy and standard trypan blue staining, and the cells were counted using an automatic cell counter (Invitrogen). BHK-21 and HepG2.2.15 cells were incubated for 24 h with the studied compounds at […] (25, 50, 100, 150 and 200 μM) and the cell morphology was controlled under microscope to evaluate cytopathic effects (Table 1, the highest non-toxic concentration).

[1] = biological target: HBV capsid assembly (full-length HBc protein, genotype D1) (Hepatitis B virus genotype D subtype ayw, UniProt P03146, A80I/T33N/V74G); test: HBV capsid assembly in SFV1/HBc-infected HBc-producing BHK-21 cells, native agarose gel anti-HBc immunoblot; type: cell-based; conditions: HBc-producing BHK-21 cells; for Type of effect on HBV capsid assembly in dose-dependent experiments: 0.1–50 µM, 24 h (Figure 6); for Effect on capsid production / mobility in initial test: 1–50 μM, 24 h (Figure 5); for Effect on Capsid Assembly / Effect on Capsid Assembly, Starting Concentration: 24 h, native agarose immunoblot
[2] = MTT viability assay in BHK-21 cells; type: cell-based, hamster; conditions: hamster, 200 µM, read-out: Cell viability, percentage from untreated cells
Description: BHK-21 cells were incubated with different concentrations (6.125, 12.25, 25, 50, 100, and 200 µM) of the respective compounds and the cell viability was calculated as a percentage from untreated cells (100%) (Figure 7). In general, the results confirmed the morphological observation of relatively low cytotoxicity for tested compounds at concentrations below 100 µM.
Additionally, cell viability was determined by tetrazolium salt-based assay using the Vybrant MTT Cell Proliferation kit (Thermo Fisher Scientific, Waltham, MA, USA) or more sensitive CCK-8 kit (Abcam). First, the cell numbers and protocol were optimized for BHK-21 and HepG2.2.15 cells, as indicated in the MTT assay kit or CCK-8 reagent manufacturer’s protocol, and standard curves with OD values were created and evaluated.
In order to evaluate the toxicity of selected HAP compounds in the medium, 1.3 × 10^4 BHK-21 were seeded per well in 96-well plates and treated with the studied compounds for 24 h at concentrations 6.125; 12.25; 25; 50; 100; and 200 μM. Control cells without HAP compounds and MTT-free cell media were included in the experiments. The MTT test was performed according to the full protocol version (Thermo Fisher Scientific).

HBV [3] = conditions: HepG2.2.15 cells; for HBV DNA, % from control: six days, secreted virion DNA
HepG2.2.15 cells = test: MTT viability test in HepG2.2.15 cells (TC50); type: cell-based, human; conditions: 48 h, 0–200 µM
Description: In order to compare the cytotoxicity of compounds 1d and 1e in HBV producing HepG2.2.15 cells, the toxic concentrations (TC50 values) were estimated (Figure 9B,C).
In order to calculate the median of the toxic concentration (TC50) of the compounds, 1.33 × 10^5 HepG2.2.15 cells per well were seeded into a 24-well plate. After 24 h, the cells were treated with the test compounds at different concentrations (0, 50, 100, 150, 200 μM) and incubated for 48 h at 37 °C. All experiments were carried out in three identical repeats and the coefficient of variation and standard deviation were calculated from at least two independent experiments.
The percent inhibition at each compound concentration was calculated by normalization of the signals to the signals from non-treated HepG2.2.15 cells. […] Data points and error bars represent the means and standard deviations from at least two independent experiments, respectively. Comparisons between data groups were performed using the unpaired t test, with p values < 0.05 being considered statistically significant.

HBV [4] = test: microbe, parasite or virus in culture; conditions: Hepatitis B virus, HepG2.2.15, 144 h, read-out: EC50 (50% reduction of HBV DNA), HepG2.2.15 cells, six days, 0–20 µM
[5] = non-infected BHK-21 cells, no noticeable cytopathic effect

Chain of HBV capsid assembly (full-length HBc protein, genotype D1) (P03146 whole entry A80I/T33N/V74G, looked up): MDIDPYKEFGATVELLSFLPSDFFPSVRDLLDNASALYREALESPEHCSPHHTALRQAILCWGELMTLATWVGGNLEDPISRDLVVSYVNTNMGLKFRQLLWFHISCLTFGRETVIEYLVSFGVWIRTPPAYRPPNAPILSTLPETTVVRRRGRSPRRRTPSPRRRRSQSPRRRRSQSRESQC

SMILES | melting point [°C] | Effect on capsid production / mobility in initial test [1] | Effect on Capsid Assembly [1] | Effect on Capsid Assembly, Starting Concentration [1] [µM] | also measured
CCOC(=O)C1=C(C)NC(c2ncc(F)cc2F)=NC1c1ccc(F)cc1 (stereo not shown) (hydrate or solvate) [1c] | 126 to 127 | – | – | – | –
CCOCCOC(=O)C1=C(C)NC(c2ncc(F)cc2F)=NC1c1ccc(F)cc1Cl (stereo not shown) (hydrate or solvate) [1d] | 143 to 144 | – | – | – | –
CC1=C(C(=O)OCCOC(C)C)C(c2ccc(F)cc2Cl)N=C(c2ncc(F)cc2F)N1 (stereo not shown) (hydrate or solvate) [1e] | 156 to 157 | – | – | – | –
CCCOCCOC(=O)C1=C(C)NC(c2ncc(F)cc2F)=NC1c1ccc(F)cc1Cl (stereo not shown) (hydrate or solvate) [1f] | 149 to 150 | – | – | – | –
CCCOCCOC(=O)C1=C(C)NC(c2ncc(F)cc2F)=NC1c1ccccc1OC(F)F (stereo not shown) (hydrate or solvate) [1g] | 164 to 165 | – | – | – | –
CC1=C(C(=O)Nc2ccccn2)C(c2ccc(F)cc2Cl)N=C(c2ncc(F)cc2F)N1 (stereo not shown) (hydrate or solvate) [1h] | 152 to 153 | – | – | – | –
COc1ccccc1NC(=O)C1=C(C)NC(c2ncc(F)cc2F)=NC1c1ccc(F)cc1Cl (stereo not shown) (hydrate or solvate) [1i] | 149 to 150 | – | – | – | –
CCOC(=O)C1=C(C)NC(c2nccs2)=NC1c1ccc(F)cc1 (stereo not shown) (hydrate or solvate) [1j] | 114 to 115 | – | – | – | –
CCOC(=O)C1=C(C)NC(c2nccs2)=NC1c1ccccc1 (stereo not shown) (hydrate or solvate) [1k] | 129 to 130 | – | – | – | –
CC1=C(C(=O)O)C(c2ccc(F)cc2Cl)N=C(c2ncc(F)cc2F)N1 (stereo not shown) [1b] | – | inhibitory effect | Dose dependent capsid signal decrease | 10 | The Highest Non-Toxic Concentration (BHK-21 cells; [5]): 50 µM; Type of effect on HBV capsid assembly in dose-dependent experiments [1]: dose-dependent HBc signal decrease; viability at 24 h, 200 µM [2]: > 90%; HBV DNA, % from control (HBV [3]; 10 µM): 74.3%
CCOC(=O)C1=C(C)NC(c2ncc(F)cc2F)=NC1c1ccc(F)cc1 (stereo not shown) [1c] | – | inhibitory effect | Capsid signal decrease | 5 | –
CC1=C(C(=O)OCCOC(C)C)C(c2ccc(F)cc2Cl)N=C(c2ncc(F)cc2F)N1 (stereo not shown) [1e] | – | misfolding of the HBV capsid | Dose dependent capsid signal decrease | 10 | The Highest Non-Toxic Concentration (BHK-21 cells; [5]): 100 µM; Effect on capsids at lower concentrations ([1]; 5 μM and 10 μM): capsid stabilization and accumulation; Effect on capsids at higher concentrations ([1]; 20 μM and 50 μM): capsids were almost non-detectable; Type of effect on HBV capsid assembly in dose-dependent experiments [1]: dose-dependent HBc signal decrease; viability at 24 h, 200 µM [2]: > 90%; TC50 (HepG2.2.15 cells): 98 µM; SI (TC50/EC50) (HBV [3]): 11; HBV DNA, % from control (HBV [3]; 20 µM): 6.3%; Decrease in the amount of HBV virion release compared with control (HBV [3]; Figure 8): ≤ 93.5%; EC50 (HBV [4]): 9.16 µM
CCCOCCOC(=O)C1=C(C)NC(c2ncc(F)cc2F)=NC1c1ccc(F)cc1Cl (stereo not shown) [1f] | – | misfolding of the HBV capsid | HBc accumulation, aggregates/or incorrect capsid structures | 10 | The Highest Non-Toxic Concentration (BHK-21 cells; [5]): 100 µM; Type of effect on HBV capsid assembly in dose-dependent experiments [1]: dose-dependent HBc products accumulation; viability at 24 h, 200 µM [2]: > 90%; HBV DNA, % from control (HBV [3]; 20 µM): 52.5%
CCCOCCOC(=O)C1=C(C)NC(c2ncc(F)cc2F)=NC1c1ccccc1OC(F)F (stereo not shown) [1g] | – | did not induce a significant effect on the capsid mobility; also recorded: some increase in capsid band signal | Insignificant capsid amount increases | – | The Highest Non-Toxic Concentration (BHK-21 cells; [5]): 50 µM
CC1=C(C(=O)Nc2ccccn2)C(c2ccc(F)cc2Cl)N=C(c2ncc(F)cc2F)N1 (stereo not shown) [1h] | – | – | Dose dependent capsid signal decrease | 20 | The Highest Non-Toxic Concentration (BHK-21 cells; [5]): 150 µM; Type of effect on HBV capsid assembly in dose-dependent experiments [1]: dose-dependent HBc signal decrease; viability at 24 h, 200 µM [2]: > 90%
COc1ccccc1NC(=O)C1=C(C)NC(c2ncc(F)cc2F)=NC1c1ccc(F)cc1Cl (stereo not shown) [1i] | – | – | Dose dependent capsid signal decrease | 20 | The Highest Non-Toxic Concentration (BHK-21 cells; [5]): 50 µM; Type of effect on HBV capsid assembly in dose-dependent experiments [1]: dose-dependent HBc signal decrease; viability at 24 h, 200 µM [2]: 71%
CCOC(=O)C1=C(C)NC(c2nccs2)=NC1c1ccc(F)cc1 (stereo not shown) [1j] | – | misfolding of the HBV capsid | HBc accumulation, aggregates/or incorrect capsid structures | 5 | Type of effect on HBV capsid assembly in dose-dependent experiments [1]: dose-dependent HBc products accumulation
CCOC(=O)C1=C(C)NC(c2nccs2)=NC1c1ccccc1 (stereo not shown) [1k] | – | misfolding of the HBV capsid | Dose dependent HBc accumulation, aggregates/or incorrect capsid structures | 1 | –
COC(=O)C1=C(C[n+]2ccccc2)NC(c2ncc(F)cc2F)=NC1c1ccc(F)cc1Cl (stereo not shown) [3a] | 173 to 174 | did not induce a significant effect on the capsid mobility | No effect | – | –
COC(=O)C1=C(C[N+]2(C)CCCC2)NC(c2ncc(F)cc2F)=NC1c1ccc(F)cc1Cl (stereo not shown) [3b] | 167 to 168 | did not induce a significant effect on the capsid mobility | No effect | – | –
COC(=O)C1=C(C[N+]2(C)CCOCC2)NC(c2ncc(F)cc2F)=NC1c1ccc(F)cc1Cl (stereo not shown) [3c] | 181 to 182 | did not induce a significant effect on the capsid mobility | No effect | – | The Highest Non-Toxic Concentration (BHK-21 cells; [5]): 150 µM
COC(=O)C1=C(C[N+]23CCC(CC2)C(O)C3)NC(c2ncc(F)cc2F)=NC1c1ccc(F)cc1Cl (stereo not shown) [3d] | – | inhibitory effect | Capsid signal decrease, possible changes in NS packaging | – | The Highest Non-Toxic Concentration (BHK-21 cells; hamster): 100 µM
CCOC(=O)c1c(C)nc(-c2nccs2)nc1-c1ccccc1 [4a] | 93 to 94 | did not induce a significant effect on the capsid mobility | No effect | – | –
CCOC(=O)c1c(C)nc(-c2nccs2)nc1-c1ccc(F)cc1 [4b] | – | did not induce a significant effect on the capsid mobility | No effect | – | –
CCCCCC[n+]1ccc(C)cc1.Cc1ccc(S(=O)(=O)[O-])cc1 [7a] | – | did not induce a significant effect on the capsid mobility | No effect | – | The Highest Non-Toxic Concentration (BHK-21 cells; [5]): 50 µM
CCCCCCCCCCCCCCCC[n+]1ccc(C)cc1.Cc1ccc(S(=O)(=O)[O-])cc1 [7b] | – | did not induce a significant effect on the capsid mobility | No effect | – | –
O=C1OCC2=C1C(c1ccc(F)cc1Cl)N=C(c1ncc(F)cc1F)N2 (stereo not shown) [compound 5] | – | misfolding of the HBV capsid | HBc accumulation, aggregates/or incorrect capsid structures | 50 | Type of effect on HBV capsid assembly in dose-dependent experiments [1]: dose-dependent HBc products accumulation
CCOC(=O)C1=C(C)NC(c2nccs2)=CC1c1ccc(F)cc1Cl (stereo not shown) [compound 6] | – | did not induce a significant effect on the capsid mobility | No effect | – | –
